Reference: patent publication US20250312258A1, “2,3-PYRROLIDINEDIONE CONJUGATES AND METHODS OF USING THEREOF” (North Carolina State University, priority 2022, published 2025)
Where two headings read alike, the source gives them in different places.

How the values were obtained:
S. pneumoniae = assay: MIC against S. pneumoniae strain panel; type: cell-based; conditions: Streptococcus pneumoniae, read-out: MIC
Group A Strep = assay: MIC against Group A Strep strain panel; type: cell-based; conditions: read-out: MIC
VSE 2127 = assay: MIC against VSE 2127; type: cell-based, Enterococcus spp.; conditions: Enterococcus; read-out: MIC (VSE 2127)
MRSA = assay: MIC against MRSA strain panel; type: cell-based; conditions: Staphylococcus aureus, the 4th table, read-out: MIC
VRE = assay: MIC / in vitro activity against VRE strain panel; type: cell-based, Enterococcus spp.; conditions: Enterococcus, VRE, read-out: MIC

Measured: MIC

CCC1C(c2ccc(C(F)(F)F)cc2)=C(O)C(=O)N1C1CCC(NC)CC1 (stereo not drawn) [Compound 4]
0.5 µg/mL: S. pneumoniae; ATCC49619, ATCC 49619 S. pneumoniae, the 7th table | S. pneumoniae; CO314937 S. pneumoniae, CA-MHB w/5% LHB, the 4th table | S. pneumoniae; CT3-5008 S. pneumoniae, the 7th table | S. pneumoniae; CT3-5803 S. pneumoniae, the 7th table | S. pneumoniae; CT3-8501 S. pneumoniae, the 7th table | S. pneumoniae; CT4-3048 S. pneumoniae, the 7th table | S. pneumoniae; CT4-9693 S. pneumoniae, the 7th table | S. pneumoniae; CT5-6541 S. pneumoniae, the 7th table | S. pneumoniae; CT5-8032 S. pneumoniae, the 7th table | S. pneumoniae; CT6-0670 S. pneumoniae, the 7th table | S. pneumoniae; CT6-7691 S. pneumoniae, the 7th table | S. pneumoniae; CT0200-2241 S. pneumoniae, the 7th table | S. pneumoniae; CT0200-2730 S. pneumoniae, the 7th table | S. pneumoniae; MD77773 S. pneumoniae, CA-MHB w/5% LHB, the 4th table | Group A Strep; 2007-11 Group A Strep, the 8th table | Group A Strep; 2007-28 Group A Strep, the 8th table | Group A Strep; 2007-49 Group A Strep, the 8th table | Group A Strep; 2007-73 Group A Strep, the 8th table | Group A Strep; 2007-107 Group A Strep, the 8th table | Group A Strep; 2007-1101 Group A Strep, the 8th table | Group A Strep; 2008-06 Group A Strep, the 8th table | Group A Strep; 2008-45 Group A Strep, the 8th table | Group A Strep; 2008-1565 Group A Strep, the 8th table | Group A Strep; 2008-1692 Group A Strep, the 8th table | Group A Strep; 2009-8 Group A Strep, the 8th table | Group A Strep; 2009-37 Group A Strep, CA-MHB w/5% LHB, the 4th table | Group A Strep; 2009-106 Group A Strep, the 8th table | Group A Strep; 2009-109 Group A Strep, the 8th table | Group A Strep; 2009-114 Group A Strep, the 8th table | Group A Strep; 2009-136 Group A Strep, the 8th table | VSE 2127
4 µg/mL: VRE; 1751 (VRE), the 3rd table | VRE; 1751 VRE, the 6th table | VRE; 3183 (VRE), the 3rd table | VRE; 3183 VRE, the 6th table
1 µg/mL: MRSA; 6215 MRSA | MRSA; 6217 MRSA | MRSA; 6218 MRSA | MRSA; 6220 MRSA | MRSA; 6231 MRSA | MRSA; AR-978 MRSA | MRSA; AR-979 MRSA | MRSA; AR-993 MRSA | MRSA; AR-997 MRSA
16 µg/mL: VRE; 3053 VRE, the 6th table
8 µg/mL: VRE; 1593 (VRE), the 3rd table | VRE; 1593 VRE, the 4th table | VRE; 1772 VRE, the 6th table | VRE; 1946 VRE, the 6th table | VRE; 2059 VRE, the 6th table | VRE; 2431 (VRE), the 3rd table | VRE; 2431 VRE, the 6th table | VRE; 2574 VRE, the 6th table | VRE; 3190 VRE, the 6th table | VRE; 3191 VRE, the 6th table | VRE; 3222 (VRE, the 3rd table) | VRE; 3222 VRE, the 6th table | VRE; 3235 VRE, the 6th table
0.25 µg/mL: S. pneumoniae; ATCC49619, ATCC 49619 S. pneumoniae, CA-MHB w/5% LHB, the 4th table | S. pneumoniae; CT4-9046 S. pneumoniae, the 7th table | S. pneumoniae; CT5-9124 S. pneumoniae, the 7th table | Group A Strep; 2008-818 Group A Strep, CA-MHB w/5% LHB, the 4th table | Group A Strep; 2008-1732 Group A Strep, CA-MHB w/5% LHB, the 4th table
